# Assay results from publication PMC11364775, “Ion occupancy of the selectivity filter controls opening of a cytoplasmic gate in the K2P channel TALK-2” (Nature Communications, 2024).
# Entries after “also recorded” stand apart in the source; their conditions may differ. Where two headings read alike, the source gives them in different places.
# Tests used:
# WT TALK-2 channels [1] = target: T1, WT TALK-2 channels (Homo sapiens, UniProt Q96T54); conditions: TALK-2 WT
# T1 sequence (Q96T54 1-332): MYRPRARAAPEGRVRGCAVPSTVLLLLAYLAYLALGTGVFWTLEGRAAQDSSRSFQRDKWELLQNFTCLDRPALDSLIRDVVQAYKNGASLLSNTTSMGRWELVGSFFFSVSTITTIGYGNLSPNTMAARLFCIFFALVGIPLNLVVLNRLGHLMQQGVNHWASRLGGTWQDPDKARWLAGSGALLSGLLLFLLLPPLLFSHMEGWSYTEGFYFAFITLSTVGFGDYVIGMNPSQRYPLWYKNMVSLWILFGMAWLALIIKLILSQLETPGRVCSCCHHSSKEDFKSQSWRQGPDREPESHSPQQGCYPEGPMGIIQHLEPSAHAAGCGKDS
# Description: Data shown are the mean ± s.e.m and the number (n) of repeats of the representative measurements with similar results is indicated in the figure.
# Oocytes were surgically removed from anesthetized adult females, treated with type II collagenase (Sigma-Aldrich/Merck, Germany) and manually defolliculated. 50 nl of a solution containing the K^+ channel specific cRNA was injected into Dumont stage V - VI oocytes and subsequently incubated at 17 °C in a solution containing (mM): 54 NaCl, 30 KCl, 2.4 NaHCO3, 0.82 MgSO4 x 7 H2O, 0.41 CaCl2, 0.33 Ca(NO3)2 x 4 H2O and 7.5 TRIS (pH 7.4 adjusted with NaOH/HCl) for 1–7 days before use. Electrophysiological recordings: Excised patch measurements in inside-out configuration under voltage-clamp conditions were performed at room temperature (22 – 24 °C). Patch pipettes were made from thick-walled borosilicate glass GB 200TF-8P (Science Products, Germany), had resistances of 0.2–0.5 MΩ (tip diameter of 10 - 25 µm) and filled with a pipette solution (in mM): 120 KCl, 10 HEPES and 3.6 CaCl2 (pH 7.0 - 8.5 adjusted with KOH/HCl) or 120 KCl, 10 AMPSO and 3.6 CaCl2 (pH 9.0 - 10.5 adjusted with KOH/HCl). Intracellular bath solutions and compounds were applied to the cytoplasmic side of excised patches for the various K^+ channels via a gravity flow multi-barrel pipette system. Intracellular solution had the following composition (in mM): 120 KCl, 10 HEPES, 2 EGTA and 1 Pyrophosphate (pH adjusted with KOH/HCl). In other intracellular bath solutions, K^+ was replaced by Rb^+ (pH 7.4 adjusted with RbOH/HCl). Currents were recorded with an EPC10 amplifier (HEKA electronics, Germany) and sampled at 10 kHz or higher and filtered with 3 kHz (-3 dB) or higher as appropriate for sampling rate.
# [2] = tested on: WT TREK-1 channels (human K2P2.1); conditions: TREK-1 WT
# Description: Oocytes were surgically removed from anesthetized adult females, treated with type II collagenase (Sigma-Aldrich/Merck, Germany) and manually defolliculated. 50 nl of a solution containing the K^+ channel specific cRNA was injected into Dumont stage V - VI oocytes and subsequently incubated at 17 °C in a solution containing (mM): 54 NaCl, 30 KCl, 2.4 NaHCO3, 0.82 MgSO4 x 7 H2O, 0.41 CaCl2, 0.33 Ca(NO3)2 x 4 H2O and 7.5 TRIS (pH 7.4 adjusted with NaOH/HCl) for 1–7 days before use. Electrophysiological recordings: Excised patch measurements in inside-out configuration under voltage-clamp conditions were performed at room temperature (22 – 24 °C). […] Intracellular bath solutions and compounds were applied to the cytoplasmic side of excised patches for the various K^+ channels via a gravity flow multi-barrel pipette system. Intracellular solution had the following composition (in mM): 120 KCl, 10 HEPES, 2 EGTA and 1 Pyrophosphate (pH adjusted with KOH/HCl). In other intracellular bath solutions, K^+ was replaced by Rb^+ (pH 7.4 adjusted with RbOH/HCl). Currents were recorded with an EPC10 amplifier (HEKA electronics, Germany) and sampled at 10 kHz or higher and filtered with 3 kHz (-3 dB) or higher as appropriate for sampling rate.
# Recorded currents were analyzed from stable membrane patches at a voltage defined in the respective figure legend or with a voltage protocol as indicated in the respective figure. The fold activation (fold change in (tail) current amplitude) of a ligand (drug or bioactive lipid) was calculated from Eq. 1:1 Fold activationFA=Iactivated/Ibasal where Iactivated represents the stable current level in the presence of a given concentration of a respective ligand and Ibasal the measured current before ligand application. Percentage inhibition or residual currents upon blocker application for a ligand (drug or bioactive lipid) was calculated from stable currents of excised membrane patches using the following Eqs. 2 and 3:2 %inhibition=1−Iinhibited/Ibasal*100 3 Residual current=100−%inhibition where Iinhibited refers to the stable current level recorded in the presence of a given concentration of a drug or bioactive lipid and Ibasal to the measured current before ligand application. The macroscopic half-maximal concentration-inhibition relationship of a ligand was obtained using a Hill-fit for dose-response curves as depicted in Eq. 4:4 %inhibition/activation=Ibase+Imax−Ibase/1+x1/2/x^rate where base and max are the currents in the absence and presence of a respective ligand, x is the concentration of the ligand, x1/2 is the ligand concentration at which the activatory or inhibitory effect is half-maximal, rate is the Hill coefficient.
# WT TALK-2 channels [3] = target: T1, WT TALK-2 channels; test: Tail current deactivation kinetics with pore blocker (inside-out patch); format: cell-based; design: expressed in transfected cells; host or cells: Xenopus laevis oocytes (cRNA injection), excised inside-out patches
# Excerpt: In voltage-gated K^+ (Kv) channels, the closing of the lower gate can be prevented by the binding of blockers such as tetra-pentyl-ammonium (TPenA) in the pore cavity and, thereby, causing a slowing of the deactivation kinetics which is known as the ‘foot in the door’ effect[33],[34]. To test for such a mechanism in TALK-2, we activated the channels with a voltage step to +100 mV in the presence of intracellular Rb^+ followed by a repolarization step to -80 mV (to induce tail currents) with and without the K2P channel pore blocker TPenA. […] We hypothesize, that the two gates are strongly coupled and, therefore, opening the SF gate by depolarization should also open the lower gate, which then consequently would allow blocker (like TPenA) binding within the pore cavity (Fig. 5a cartoon). Upon repolarization, however, the bound TPenA blocker obstructs closure of the lower gate and thereby, hinders the SF from closure/inactivation (gate coupling).
# WT TALK-2 channels [4] = target: T1, WT TALK-2 channels; test: Pore blocker inhibition (dose-response, residual currents) in inside-out patches at +40 mV; format: cell-based; design: expressed in transfected cells; host or cells: Xenopus laevis oocytes (cRNA injection), excised inside-out patches; conditions: for IC50: IC50 of TPenA inhibition
# Description: Data shown are the mean ± s.e.m and the number (n) of independent experiments and repeats of representative measurements with similar results is indicated in the figure.
# Electrophysiological recordings: Excised patch measurements in inside-out configuration under voltage-clamp conditions were performed at room temperature (22 – 24 °C). Patch pipettes were made from thick-walled borosilicate glass GB 200TF-8P (Science Products, Germany), had resistances of 0.2–0.5 MΩ (tip diameter of 10 - 25 µm) and filled with a pipette solution (in mM): 120 KCl, 10 HEPES and 3.6 CaCl2 (pH 7.0 - 8.5 adjusted with KOH/HCl) or 120 KCl, 10 AMPSO and 3.6 CaCl2 (pH 9.0 - 10.5 adjusted with KOH/HCl). Intracellular bath solutions and compounds were applied to the cytoplasmic side of excised patches for the various K^+ channels via a gravity flow multi-barrel pipette system. Intracellular solution had the following composition (in mM): 120 KCl, 10 HEPES, 2 EGTA and 1 Pyrophosphate (pH adjusted with KOH/HCl). In other intracellular bath solutions, K^+ was replaced by Rb^+ (pH 7.4 adjusted with RbOH/HCl). Currents were recorded with an EPC10 amplifier (HEKA electronics, Germany) and sampled at 10 kHz or higher and filtered with 3 kHz (-3 dB) or higher as appropriate for sampling rate.
# Data analysis and statistics were done using Fitmaster (HEKA electronics, version: v2x73.5, Germany), Microsoft Excel 2021 (Microsoft Corporation, USA), and Igor Pro 9 software (WaveMetrics Inc., USA). Recorded currents were analyzed from stable membrane patches at a voltage defined in the respective figure legend or with a voltage protocol as indicated in the respective figure. […] Percentage inhibition or residual currents upon blocker application for a ligand (drug or bioactive lipid) was calculated from stable currents of excised membrane patches using the following Eqs. 2 and 3:2 %inhibition=1−Iinhibited/Ibasal*100 3 Residual current=100−%inhibition where Iinhibited refers to the stable current level recorded in the presence of a given concentration of a drug or bioactive lipid and Ibasal to the measured current before ligand application.
# [5] = target: T2, WT TALK-2 channels (human K2P17.1) (Homo sapiens, UniProt Q96T54); design: expressed in transfected cells; host or cells: Xenopus laevis oocytes (cRNA injection), excised inside-out patches; method as in PMID 34928298; conditions: cited from earlier work
# T2 sequence (Q96T54 1-332): T1 sequence (Q96T54 1-332)
structure (smiles),measurement,setting,value
"NCCOB(c1ccccc1)c1ccccc1 [2-APB, 2-aminoethoxydiphenyl borate]",Rb+-induced current,WT TALK-2 channels [1]; 0.001 mM 2-APB,0.79 nA
same,Rb+-induced current,WT TALK-2 channels [1]; 0.01 mM 2-APB,0.98 nA
same,Rb+-induced current,WT TALK-2 channels [1]; 0.1 mM 2-APB,2.85 nA
same,Rb+-induced current,WT TALK-2 channels [1]; 0.5 mM 2-APB,8.79 nA
same,Rb+-induced current,WT TALK-2 channels [1]; 1.0 mM 2-APB,11.82 nA
same,Rb+-induced current,WT TALK-2 channels [1]; 2.0 mM 2-APB,15.32 nA
same,Normalized currents,[2]; 0.1 µM 2-APB,0.03
same,Normalized currents,[2]; 1 µM 2-APB,0.04
same,Normalized currents,[2]; 10 µM 2-APB,0.08
same,Normalized currents,[2]; 100 µM 2-APB,0.28
same,Normalized currents,[2]; 200 µM 2-APB,0.47
same,Normalized currents,[2]; 500 µM 2-APB,0.80
same,Normalized currents,[2]; 1000 µM 2-APB,0.97
same,Normalized currents,[2]; 2000 µM 2-APB,0.99
"CCCCC[N+](CCCCC)(CCCCC)CCCCC [TPenA, Tetra-pentyl-ammonium chloride]",effect of TPenA inhibition on tail current kinetics,"WT TALK-2 channels [3]; 2-APB-activated TALK-2 (1.0 mM 2-APB, 1.0 mM TPenA)",no effect; also recorded: little effect
same,deactivation time constant τ of tail currents,"WT TALK-2 channels [3]; intracellular Rb+ with 1.0 mM TPenA, step to +100 mV, repolarization to -80 mV",7.4 ± 0.4 ms
same,TPenA block of the tail current amplitudes,"WT TALK-2 channels [3]; intracellular Rb+, tail currents at -80 mV",~ 50%
same,slowing of the deactivation kinetics,"WT TALK-2 channels [3]; with ~50 % TPenA block, intracellular Rb+",~ 2.5 fold
same,IC50,"WT TALK-2 channels [4]; 0.2 mM 2-APB, n = 7, legend of Fig. 5e",778 ± 116 µM
same,IC50,"WT TALK-2 channels [4]; 0.5 mM 2-APB, n = 5, legend of Fig. 5e",215 ± 28 µM
same,IC50,"WT TALK-2 channels [4]; 1.0 mM 2-APB, n = 16, legend of Fig. 5e",54 ± 10 µM
same,IC50,"WT TALK-2 channels [4]; pre-activated with 0.2 mM 2-APB, +40 mV",1110 ± 411 µM
same,IC50,"WT TALK-2 channels [4]; pre-activated with 0.5 mM 2-APB, +40 mV",225 ± 25 µM
same,Normalized currents,"WT TALK-2 channels [4]; TALK-2 WT + 0.2 mM 2-APB, 1 µM TPenA",1.00
same,Normalized currents,"WT TALK-2 channels [4]; TALK-2 WT + 0.2 mM 2-APB, 10 µM TPenA",0.87
same,Normalized currents,"WT TALK-2 channels [4]; TALK-2 WT + 0.2 mM 2-APB, 100 µM TPenA",0.81
same,Normalized currents,"WT TALK-2 channels [4]; TALK-2 WT + 0.2 mM 2-APB, 1000 µM TPenA",0.47
same,Normalized currents,"WT TALK-2 channels [4]; TALK-2 WT + 0.2 mM 2-APB, 10000 µM TPenA",0.15
same,Normalized currents,"WT TALK-2 channels [4]; TALK-2 WT + 0.5 mM 2-APB, 1 µM TPenA",1.02
same,Normalized currents,"WT TALK-2 channels [4]; TALK-2 WT + 0.5 mM 2-APB, 10 µM TPenA",0.89
same,Normalized currents,"WT TALK-2 channels [4]; TALK-2 WT + 0.5 mM 2-APB, 100 µM TPenA",0.63
same,Normalized currents,"WT TALK-2 channels [4]; TALK-2 WT + 0.5 mM 2-APB, 1000 µM TPenA",0.25
same,Normalized currents,"WT TALK-2 channels [4]; TALK-2 WT + 0.5 mM 2-APB, 10000 µM TPenA",0.08
same,Normalized currents,"WT TALK-2 channels [4]; TALK-2 WT + 1.0 mM 2-APB, 1 µM TPenA",1.00
same,Normalized currents,"WT TALK-2 channels [4]; TALK-2 WT + 1.0 mM 2-APB, 10 µM TPenA",0.87
same,Normalized currents,"WT TALK-2 channels [4]; TALK-2 WT + 1.0 mM 2-APB, 100 µM TPenA",0.33
same,Normalized currents,"WT TALK-2 channels [4]; TALK-2 WT + 1.0 mM 2-APB, 1000 µM TPenA",0.07
same,Normalized currents,"WT TALK-2 channels [4]; TALK-2 WT + 1.0 mM 2-APB, 2000 µM TPenA",0.06
same,Normalized currents,"WT TALK-2 channels [4]; TALK-2 WT + 1.0 mM 2-APB, 5000 µM TPenA",0.06
same,Normalized currents,"WT TALK-2 channels [4]; TALK-2 WT + 1.0 mM 2-APB, 10000 µM TPenA",0.01
same,Residual currents with 1 mM TPenA,"WT TALK-2 channels [4]; TALK-2 WT unstimulated, +40 mV",101.31%
same,Residual currents with 1 mM TPenA,"WT TALK-2 channels [4]; TALK-2 WT, 0.2 mM 2-APB, +40 mV",47.38%
same,Residual currents with 1 mM TPenA,"WT TALK-2 channels [4]; TALK-2 WT, 0.5 mM 2-APB, +40 mV",25.47%
same,Residual currents with 1 mM TPenA,"WT TALK-2 channels [4]; TALK-2 WT, 1.0 mM 2-APB, +40 mV",6.78%
same,Normalized currents,"WT TALK-2 channels [4]; TALK-2 WT, 1 µM TPenA",0.98
same,Normalized currents,"WT TALK-2 channels [4]; TALK-2 WT, 10 µM TPenA",0.97
same,Normalized currents,"WT TALK-2 channels [4]; TALK-2 WT, 100 µM TPenA",0.95
same,Normalized currents,"WT TALK-2 channels [4]; TALK-2 WT, 1000 µM TPenA",0.95
same,Normalized currents,"WT TALK-2 channels [4]; TALK-2 WT, 5000 µM TPenA",0.98
same,Normalized currents,"WT TALK-2 channels [4]; TALK-2 WT, 10000 µM TPenA",0.99
same,TPenA block in the basal state,"WT TALK-2 channels [4]; basal state (low PO), 1.0 mM TPenA",hardly any TPenA block
CCCCCCCC/C=C\CCCCCCCC(=O)SCCNC(=O)CCNC(=O)[C@H](O)C(C)(C)COP(=O)(O)OP(=O)(O)OC[C@H]1O[C@@H](n2cnc3c(N)ncnc32)[C@H](O)[C@@H]1OP(=O)(O)O [oleoyl-CoA],increase of channel activity,[5],more than 100 fold
